Results from patent US9675592B2, “Methods and compositions for bacteria infections” (priority 2013, dated 2017).
Read-outs that look alike come from different tables or passages of the source.

Key:
[1] = tested on: test strain (923 pPvra-lux); experiment: Growth inhibition by compound alone (maximum non-growth-inhibitory concentration); assay type: cell-based, Staphylococcus aureus; conditions: for maximum non-GI conc: compound alone, maximum concentration where it did NOT inhibit growth
[2] = tested on: test strain 923 pPvra-lux (USA300 MRSA); experiment: Primary screen, relative growth in presence of oxacillin; conditions: compound 10 μM with oxacillin 2 μg/mL, absorbance 24 h, <0.50 = dead cells = hit
[3] = tested on: test strain 923 pPvra-lux; experiment: Secondary screen / synergy confirmation of Top 40, relative growth with oxacillin; assay type: cell-based, Staphylococcus aureus; conditions: Top 40 library, compound at maximum non-GI conc
Procedure: In the secondary screen each microtiter plate contained either cells in TSB alone (16 replicates), cells with oxacillin (2 μg/mL, 31 replicates), or cells with test compound and oxacillin (2 μg/mL, 49 wells). Each compound was assayed in four separate biological replicates.
Synergy Confirmation of “Top 40”. […]

[4] = tested on: vraSR promoter (Pvra-lux reporter in strain 923); assay type: cell-based, Staphylococcus aureus; conditions: for RL Ox avg: Top 40 library, with oxacillin, compound at maximum non-GI conc; for vraSR repressing synergist: overall class from syn and rep
Procedure: In the secondary screen each microtiter plate contained either cells in TSB alone (16 replicates), cells with oxacillin (2 μg/mL, 31 replicates), or cells with test compound and oxacillin (2 μg/mL, 49 wells). Each compound was assayed in four separate biological replicates. […]

[5] = tested on: vraSR promoter (Pvra-lux reporter in strain 923); experiment: Primary screen, relative luminescence (vraSR expression)
[6] = primary screen, compound 10 μM with oxacillin 2 μg/mL, <0.50 = vraSR repressed = hit

| SMILES | maximum non-GI conc [1] [µg/mL] | RG avg (relative growth) [2] | RG Ox avg [3] | RL Ox avg [4] | vraSR repressing synergist [4] | RL avg (relative luminescence) [5, 6] | concentration ([1]; compound tested alone, concentration where it did NOT inhibit growth (subinhibitory), Top 40 leads after secondary screen) [µg/mL] | RL avg (relative luminescence) [5] |
| --- | --- | --- | --- | --- | --- | --- | --- | --- |
| O=C(Nc1ccc(Cl)c(C(F)(F)F)c1)N1CCN(c2cc(-n3cccn3)ncn2)CC1 [F5562-0130] | 40 | 0.02 | 1.03 | 0.57 | 3. no effect | −0.08 | – | – |
| O=C(Nc1ccc2c(c1)OCO2)Nc1nc(-c2ccccn2)cs1 [F5772-8284] | 400 | 0.37 | 0.37 | 0.52 | 2. possible | −0.01 | – | – |
| Clc1ccc(-c2csc3ncnc(Sc4nnnn4-c4ccccc4)c23)cc1 [F1142-4597] | 40 | 0.03 | 0.08 | −0.01 | 1. confirmed | 0.37 | – | – |
| O=C(Nc1cccc(C(F)(F)F)c1)N1CCN(c2ccc(Nc3cccnc3)nn2)CC1 [F5237-0056] | 40 | 0.02 | 1.10 | 0.72 | 3. no effect | −0.05 | – | – |
| O=C(Nc1nnc(-c2ccccc2Cl)o1)c1ccc2ccccc2c1 [F1374-0082] | 40 | 0.08 | 0.67 | 0.08 | 2. possible | 0.35 | – | – |
| CC(=O)Nc1ccc(Nc2cc(C(C)C)nc3c(-c4ccccc4)cnn23)cc1 [F3348-0533] | 400 | 0.02 | 0.02 | 0.10 | 1. confirmed | 0.01 | – | – |
| Cc1cc(SCC(=O)Nc2cccc(C(F)(F)F)c2)n2ncc(-c3ccccc3)c2n1 [F3305-0354] | 40 | 0.00 | 1.01 | 0.61 | 3. no effect | 0.03 | – | – |
| COc1ccc(Cl)c2sc(NC(=O)c3ccccc3NS(=O)(=O)c3ccc(F)cc3)nc12 [F2708-0138] | 40 | 0.02 | 1.04 | 0.69 | 3. no effect | −0.07 | 4 | – |
| Cc1nnsc1C(=O)Nc1nc(-c2cc3ccccc3o2)cs1 [F2962-0176] | 400 | 0.06 | 0.04 | 0.01 | 1. confirmed | −0.08 | – | – |
| O=C(Nc1nc(-c2ccccn2)cs1)c1ccc(Br)s1 [F0447-0273] | 40 | −0.08 | 0.39 | 0.08 | 1. confirmed | −0.09 | – | – |
| Cc1ccc(Nc2nc(N3CCN(Cc4ccccc4)CC3)nc3nccnc23)cc1C [F2359-0308] | 400 | 0.22 | 0.01 | 0.01 | 1. confirmed | 0.07 | – | – |
| OC(c1ccccc1)c1nc2ccccc2n1Cc1ccc(Cl)c(Cl)c1 (stereo not shown) [F3068-0037] | 400 | −0.02 | −0.01 | 0.11 | 1. confirmed | 0.05 | – | – |
| O=C(Nc1cccc(C(F)(F)F)c1)N1CCN(c2ccc3nncn3n2)CC1 [F5123-0084] | 40 | 0.02 | 1.08 | 0.67 | 3. no effect | −0.08 | – | – |
| CC1CC1c1ccc(CCC(=O)Nc2ccc(Cl)c(Cl)c2)o1 (stereo not shown) [F1118-0378] | 40 | 0.01 | 1.00 | 0.65 | 3. no effect | 0.42 | – | – |
| Cc1ccc(S(=O)(=O)Nc2ccccc2C(=O)Nc2nc3c(Cl)ccc(Cl)c3s2)cc1 [F1813-0710] | 400 | −0.03 | 0.69 | 0.20 | 2. possible | 0.01 | – | – |
| Cc1ccc(S(=O)(=O)Nc2ccccc2C(=O)Nc2nc3c(C)ccc(Cl)c3s2)cc1 [F1813-0711] | 400 | −0.02 | 0.85 | 0.43 | 2. possible | – | – | −0.02 |
| O=C(Nc1ccc(OC(F)(F)F)cc1)N1CCN(c2cc(N3CCCC3)ncn2)CC1 [F5669-0378] | 40 | −0.02 | 1.00 | 0.71 | 3. no effect | −0.06 | – | – |
| O=C(CCCSc1ccc(Cl)cc1)Nc1nc(-c2ccccn2)cs1 [F2813-0883] | 40 | −0.03 | 1.03 | 1.28 | 3. no effect | −0.01 | – | – |
| O=S(=O)(Nc1cccc(-c2nc3ccccc3s2)c1)c1ccc(Cl)s1 [F2399-0063] | 400 | 0.28 | −0.01 | 0.04 | 1. confirmed | 0.12 | – | – |
